Test results published in PMC11013998, “Preparation of Peptoid Antifreeze Agents and Their Structure–Property Relationship” (Polymers, 2024).

System: Mouse fibroblasts (L929)
Experiment: Cytotoxicity test, Cell Counting Kit-8 (CCK8)
Type: cell-based
Settings: L929 cells, 10 mg/mL in culture medium, 24 h, CCK-8, OD at 450 nm; non-cytotoxic if higher than 75%; tested at least three times
Method: Cytotoxicity testing is a crucial strategy used to test the safety of biological materials. This experiment employed a low-speed centrifuge (SC-3610, Anhui Zhongke Zhongjia scientific Instrument Co., Ltd., Hefei, China), a cell incubator (CCL-170B-8, ESCO, Kuala Lumpur, Singapore) and a multifunctional microplate detector (Synergy H1, Bio-Tek, Winooski, VT, USA). In this test, the cytotoxicity of peptoid oligomers was detected using Cell Counting Kit-8 (CCK8, Finn Biological Co., Ltd., Wuhan, China). Mouse fibroblasts (L929) were cultured and subcultured to ensure that they met the experimental requirements. The old culture medium was removed from the cell dish, and 1 mL trypsin was added to digest the cells. A total of 2 mL of the new culture medium was added to the cell culture dish, and the cells were centrifuged to the bottom of the centrifuge tube. The culture medium was removed. An appropriate amount of new culture medium was added, and the centrifuge tube was shaken gently to disperse the cells evenly. […] Finally, the Optical Density (OD) at 450 nm was measured using a BioTek multifunctional microplate detector. The relative survival rate (σ) could be calculated using the following formula:(1) σ=OD1−OD0/OD2−OD0×100% where OD1 was the average OD of the experimental group, OD2 was the average OD of the negative control group, and OD0 was the average OD of the blank control group. […]

C[S+](C)[O-] [DMSO, dimethyl sulfoxide]
relative cell viability: 61.9%
